From the supplement of paper PMC10307832

Tests used:
Assay in all cases: relative viability (nuclei count vs DMSO), 5 days (fraction); higher = more cells survive
[1] = tested on: ABC-1
Method in brief: (§1)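 Relative viability is defined as nuclei in treated wells over nuclei in vehicle wells. Duplicate plates were run and medians reported. Lung cancer cell lines in 1536-well plates were dosed by pin tool one day after seeding, with one drug or with a fixed anchor-drug dose plus five library-drug doses (not always all listed) in √10 steps, and nuclei were counted after 5 days.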

[2] = tested on: CAL-12T
Method in brief: as §1

[3] = tested on: HCC-366
Method in brief: as §1

[4] = tested on: HCC-78
Method in brief: as §1

[5] = tested on: LC-2-ad
Method in brief: as §1

[6] = tested on: LOU-NH91
Method in brief: as §1

[7] = tested on: LU99A
Method in brief: as §1

[8] = tested on: NCI-H1395
Method in brief: as §1

[9] = tested on: NCI-H1651
Method in brief: as §1

[10] = tested on: NCI-H1734
Method in brief: as §1

[11] = tested on: NCI-H1755
Method in brief: as §1

[12] = tested on: NCI-H1793
Method in brief: as §1

[13] = tested on: NCI-H1944
Method in brief: as §1

[14] = tested on: NCI-H2087
Method in brief: as §1

[15] = tested on: NCI-H2228
Method in brief: as §1

[16] = tested on: NCI-H2405
Method in brief: as §1

[17] = tested on: NCI-H3122
Method in brief: as §1

[18] = tested on: NCI-H460
Method in brief: as §1

[19] = tested on: PC-3 [JPC-3]
Method in brief: as §1

[20] = tested on: RERF-LC-KJ
Method in brief: as §1

[21] = tested on: UMC-11
Method in brief: as §1

Q: For `O=C(O)c1ccc(-c2c[nH]c3ncc(-c4ccccc4)cc23)cc1C1CCCC1` + C[C@]1(O)C[C@@H](c2nc(-c3ccc4ccc(-c5ccccc5)nc4c3)c3c(N)nccn32)C1 [Linsitinib] (partner 1 µM), which relative viability ([1]; first compound 0.04 µM) is on record?
A: 0.753

Q: What about the relative viability ([1]; first compound 0.1265 µM) of the same compound?
A: 0.808

Q: What about the relative viability ([1]; first compound 0.4 µM) of the same compound?
A: 0.962

Q: And the relative viability ([1]; first compound 1.265 µM)?
A: 0.716

Q: What about the relative viability ([2]; first compound 0.04 µM) of the same compound?
A: 0.799

Q: What about the relative viability ([2]; first compound 0.1265 µM) of the same compound?
A: 0.834

Q: What about the relative viability ([2]; first compound 0.4 µM) of the same compound?
A: 0.963

Q: And the relative viability ([2]; first compound 1.265 µM)?
A: 0.6

Q: And the relative viability ([3]; first compound 0.04 µM)?
A: 0.657

Q: What about the relative viability ([3]; first compound 0.1265 µM) of the same compound?
A: 0.759

Q: And the relative viability ([3]; first compound 0.4 µM)?
A: 0.882

Q: And the relative viability ([3]; first compound 1.265 µM)?
A: 0.573

Q: And the relative viability ([4]; first compound 0.04 µM)?
A: 0.431

Q: What about the relative viability ([4]; first compound 0.1265 µM) of the same compound?
A: 0.571

Q: What about the relative viability ([4]; first compound 0.4 µM) of the same compound?
A: 0.545

Q: And the relative viability ([4]; first compound 1.265 µM)?
A: 0.534

Q: And the relative viability ([5]; first compound 0.04 µM)?
A: 0.81

Q: What about the relative viability ([5]; first compound 0.1265 µM) of the same compound?
A: 0.885

Q: What about the relative viability ([5]; first compound 0.4 µM) of the same compound?
A: 0.775

Q: And the relative viability ([5]; first compound 1.265 µM)?
A: 0.425

Q: And the relative viability ([6]; first compound 0.04 µM)?
A: 0.983

Q: And the relative viability ([6]; first compound 0.1265 µM)?
A: 0.962

Q: And the relative viability ([6]; first compound 0.4 µM)?
A: 0.899

Q: And the relative viability ([6]; first compound 1.265 µM)?
A: 0.788

Q: What about the relative viability ([7]; first compound 0.04 µM) of the same compound?
A: 0.548

Q: And the relative viability ([7]; first compound 0.1265 µM)?
A: 0.528

Q: And the relative viability ([7]; first compound 0.4 µM)?
A: 0.533

Q: And the relative viability ([7]; first compound 1.265 µM)?
A: 0.511

Q: And the relative viability ([8]; first compound 0.04 µM)?
A: 1.11

Q: And the relative viability ([8]; first compound 0.1265 µM)?
A: 1.06

Q: And the relative viability ([8]; first compound 0.4 µM)?
A: 1.08

Q: And the relative viability ([8]; first compound 1.265 µM)?
A: 0.796

Q: What about the relative viability ([9]; first compound 0.04 µM) of the same compound?
A: 0.997

Q: And the relative viability ([9]; first compound 0.1265 µM)?
A: 0.968

Q: And the relative viability ([9]; first compound 0.4 µM)?
A: 0.912

Q: And the relative viability ([9]; first compound 1.265 µM)?
A: 0.781

Q: And the relative viability ([10]; first compound 0.04 µM)?
A: 0.917

Q: What about the relative viability ([10]; first compound 0.1265 µM) of the same compound?
A: 0.938

Q: And the relative viability ([10]; first compound 0.4 µM)?
A: 0.816

Q: And the relative viability ([10]; first compound 1.265 µM)?
A: 0.823

Q: And the relative viability ([11]; first compound 0.04 µM)?
A: 0.96

Q: And the relative viability ([11]; first compound 0.1265 µM)?
A: 1.01

Q: And the relative viability ([11]; first compound 0.4 µM)?
A: 1.02

Q: What about the relative viability ([11]; first compound 1.265 µM) of the same compound?
A: 0.961

Q: What about the relative viability ([12]; first compound 0.04 µM) of the same compound?
A: 0.909

Q: And the relative viability ([12]; first compound 0.1265 µM)?
A: 0.986

Q: And the relative viability ([12]; first compound 0.4 µM)?
A: 1.09

Q: What about the relative viability ([12]; first compound 1.265 µM) of the same compound?
A: 0.889

Q: And the relative viability ([13]; first compound 0.04 µM)?
A: 1.18

Q: And the relative viability ([13]; first compound 0.1265 µM)?
A: 1.39

Q: What about the relative viability ([13]; first compound 0.4 µM) of the same compound?
A: 1.04

Q: And the relative viability ([13]; first compound 1.265 µM)?
A: 1.02

Q: And the relative viability ([14]; first compound 0.04 µM)?
A: 0.959

Q: What about the relative viability ([14]; first compound 0.1265 µM) of the same compound?
A: 1.03

Q: What about the relative viability ([14]; first compound 0.4 µM) of the same compound?
A: 0.97

Q: What about the relative viability ([14]; first compound 1.265 µM) of the same compound?
A: 0.859

Q: And the relative viability ([15]; first compound 0.04 µM)?
A: 0.726

Q: And the relative viability ([15]; first compound 0.1265 µM)?
A: 0.729

Q: And the relative viability ([15]; first compound 0.4 µM)?
A: 0.813

Q: What about the relative viability ([15]; first compound 1.265 µM) of the same compound?
A: 0.589

Q: What about the relative viability ([16]; first compound 0.04 µM) of the same compound?
A: 0.916

Q: What about the relative viability ([16]; first compound 0.1265 µM) of the same compound?
A: 0.932

Q: And the relative viability ([16]; first compound 0.4 µM)?
A: 0.908

Q: And the relative viability ([16]; first compound 1.265 µM)?
A: 0.603

Q: What about the relative viability ([17]; first compound 0.04 µM) of the same compound?
A: 0.966

Q: And the relative viability ([17]; first compound 0.1265 µM)?
A: 1.02

Q: What about the relative viability ([17]; first compound 0.4 µM) of the same compound?
A: 0.942

Q: What about the relative viability ([17]; first compound 1.265 µM) of the same compound?
A: 0.838

Q: What about the relative viability ([18]; first compound 0.04 µM) of the same compound?
A: 0.783

Q: And the relative viability ([18]; first compound 0.1265 µM)?
A: 0.989

Q: What about the relative viability ([18]; first compound 0.4 µM) of the same compound?
A: 0.753

Q: And the relative viability ([18]; first compound 1.265 µM)?
A: 0.662

Q: And the relative viability ([19]; first compound 0.04 µM)?
A: 0.915

Q: And the relative viability ([19]; first compound 0.1265 µM)?
A: 0.986

Q: What about the relative viability ([19]; first compound 0.4 µM) of the same compound?
A: 0.943

Q: And the relative viability ([19]; first compound 1.265 µM)?
A: 0.788

Q: What about the relative viability ([20]; first compound 0.04 µM) of the same compound?
A: 0.86

Q: And the relative viability ([20]; first compound 0.1265 µM)?
A: 0.862

Q: And the relative viability ([20]; first compound 0.4 µM)?
A: 0.906

Q: What about the relative viability ([20]; first compound 1.265 µM) of the same compound?
A: 0.807

Q: And the relative viability ([21]; first compound 0.04 µM)?
A: 0.98

Q: What about the relative viability ([21]; first compound 0.1265 µM) of the same compound?
A: 1.04

Q: And the relative viability ([21]; first compound 0.4 µM)?
A: 1.07

Q: What about the relative viability ([21]; first compound 1.265 µM) of the same compound?
A: 0.971
